According to patent publication US20120165310A1, “ETHER DERIVATIVES OF BICYCLIC HETEROARYLS” (NOVARTIS AG, priority 2009, published 2012):

Each compound was assayed against T1, IGF-1R (Homo sapiens, UniProt P08069) (assay: Cellular IGF-1R assay: capture ELISA (MSD) of receptor phosphorylation in Hek293 cells). Conditions: Hek293-IGF1R cells, 1 h pre-incubation, 10 min IGF stimulation, pIGF1R capture ELISA.
T1 construct: expressed in transfected cells; host or cells: Hek293 (Hek293-IGF1R)
Assay type: cell-based
Method: (§1) In this assay the activity of the compounds of the invention against Insulin-like growth factor I (IGF-I) induced autophosphorylation of the IGF-IR was determined. The assay was conducted as follows: Compound-mediated inhibition of IGF1R and INSR phosphorylation in Hek293 cells transduced with the corresponding receptors was assessed in a capture ELISA format using the MSD (Meso Scale Discovery) platform. Briefly, 30,000 cells washed and diluted in starvation medium (DMEM high glucose supplemented with 0.1% BSA) were seeded in 90 μL per well into 96-well plates pre-coated with poly-D-lysine (0.1 mg/mL in PBS/O). After 24 h incubation at 37° C. and 5% CO2, dose-response effects were determined with 3-fold serial compound dilutions, starting at 10 μM. The final vehicle concentration is 0.1% DMSO in all wells. Following pre-incubation with compounds for 1 h, receptor phosphorylation was triggered by a 10 min exposure to 1.0 ng/μL IGF for Hek293-IGF1R cells, and 5.0 ng/μL insulin for Hek293-InsR cells. Cell lysis was achieved by addition of 80 μL MSD lysis buffer per aspirated well, incubation on ice for 20 min, and a freeze-thaw cycle. Target phosphorylation was then assessed by transferring volumes corresponding to approx. 6 μg Hek293-IGF1R or 0.6 μg Hek293-InsR lysates to MSD assay plates pre-coated with total-IGF1R or total-InsR Abs, respectively. […] Immune complexes were detected by a SULFO-Tag™-coupled anti-rabbit IgG antibody in the presence of 150 μL MSD read-buffer. Light emission at 620 nm triggered by application of electric current was recorded on a MSD Sectorlmager 6000. Acquired raw data (mean Ru-ECL units) were processed in an Excel analysis template. The plate blank (MSD lysis buffer) was subtracted from all data points. The effect of a particular test compound concentration on receptor phosphorylation was expressed relative to the window defined by ligand-stimulated vs unstimulated control cells (set as 100%). IC50 values [nM] were determined using 4-parametric curve-fitting (XLfit software, V4.3.2).
as §1, with “Compound-mediated” for “In this assay the activity of the compounds of the invention against Insulin-like growth factor I (IGF-I) induced autophosphorylation of the IGF-IR was determined. The assay was conducted as follows: Compound-mediated”, “cells trans-duced” for “cells transduced”, “receptors were” for “receptors was”, “concentration was” for “concentration is”, “for Hek293-IGF1 R” for “for Hek293-IGF1R”, “with total-IGF1 R” for “with total-IGF1R”

T1 sequence (P08069 31-1367): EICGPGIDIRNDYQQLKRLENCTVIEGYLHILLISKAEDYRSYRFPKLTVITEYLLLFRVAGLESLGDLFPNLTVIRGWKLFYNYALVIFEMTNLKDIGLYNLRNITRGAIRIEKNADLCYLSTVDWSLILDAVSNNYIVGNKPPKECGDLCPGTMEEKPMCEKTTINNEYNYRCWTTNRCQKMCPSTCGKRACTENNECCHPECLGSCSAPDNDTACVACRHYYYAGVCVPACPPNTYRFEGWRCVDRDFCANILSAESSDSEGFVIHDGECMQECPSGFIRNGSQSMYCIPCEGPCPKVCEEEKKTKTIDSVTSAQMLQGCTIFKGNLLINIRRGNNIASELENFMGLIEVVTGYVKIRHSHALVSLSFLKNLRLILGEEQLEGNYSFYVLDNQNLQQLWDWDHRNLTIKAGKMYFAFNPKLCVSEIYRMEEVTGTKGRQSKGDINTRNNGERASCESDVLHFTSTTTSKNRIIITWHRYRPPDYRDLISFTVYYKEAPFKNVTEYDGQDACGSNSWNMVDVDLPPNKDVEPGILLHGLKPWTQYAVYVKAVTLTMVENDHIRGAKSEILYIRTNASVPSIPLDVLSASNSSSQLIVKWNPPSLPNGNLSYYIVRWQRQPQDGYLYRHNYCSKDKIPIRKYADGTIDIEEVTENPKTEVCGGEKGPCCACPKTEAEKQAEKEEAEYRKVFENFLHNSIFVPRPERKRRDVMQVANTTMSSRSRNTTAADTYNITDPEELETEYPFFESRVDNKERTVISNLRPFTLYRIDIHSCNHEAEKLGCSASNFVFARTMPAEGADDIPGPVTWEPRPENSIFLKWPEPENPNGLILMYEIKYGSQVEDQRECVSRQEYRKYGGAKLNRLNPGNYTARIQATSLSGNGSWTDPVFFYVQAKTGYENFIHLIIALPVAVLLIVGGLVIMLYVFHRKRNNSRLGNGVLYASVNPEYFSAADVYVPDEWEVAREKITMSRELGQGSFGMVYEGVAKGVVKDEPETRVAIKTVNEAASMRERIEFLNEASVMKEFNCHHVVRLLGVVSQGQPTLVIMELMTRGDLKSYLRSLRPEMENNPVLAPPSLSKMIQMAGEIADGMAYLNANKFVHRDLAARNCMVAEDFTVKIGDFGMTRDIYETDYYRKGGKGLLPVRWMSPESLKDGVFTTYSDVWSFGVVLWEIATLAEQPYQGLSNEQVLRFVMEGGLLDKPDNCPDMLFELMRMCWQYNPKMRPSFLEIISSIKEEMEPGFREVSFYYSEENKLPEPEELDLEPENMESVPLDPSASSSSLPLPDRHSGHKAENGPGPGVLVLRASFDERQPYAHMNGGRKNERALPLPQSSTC

Compound | IC50
Nc1ncnc2c1c(-c1cccc(OC[C@@H]3CCCO3)c1)cn2[C@H]1C[C@@H](CN2CCC(F)(F)CC2)C1 [Example 16, cis-7-[3-(4,4-Difluoro-piperidin-1-ylmethyl)-cyclobutyl]-5-{3-[(S)-1-(tetrahydrofuran-2-yl)methoxy]-phenyl}-7H-pyrrolo[2,3-d]pyrimidin-4-ylamine] | 90 to 219 nM
NC(=O)[C@@H]1CCCN1C[C@H]1C[C@@H](n2cc(-c3cccc(OCC45CCC(CC4)O5)c3)c3c(N)ncnc32)C1 [Example 68, (S)-1-(cis-3-(4-amino-5-[3-(7-oxa-bicyclo[2.2.1]hept-1-ylmethoxy)-phenyl]-pyrrolo[2,3-d]pyrimidin-7-yl)-cyclobutylmethyl)-pyrrolidine-2-carboxylic acid amide] | 12 nM
NC[C@H]1CC[C@@H](n2cc(-c3cccc(OCC45CCC(CC4)O5)c3)c3c(N)ncnc32)CC1 [Example 134, 5-(3-(7-oxabicyclo[2.2.1]heptan-1-ylmethoxy)phenyl)-7-((1S,4S)-4-(aminomethyl)cyclohexyl)-7H-pyrrolo[2,3-d]pyrimidin-4-amine] | 227 nM
NC(=O)[C@H]1CCCN1C[C@H]1C[C@@H](n2cc(-c3cccc(OCC4CCCO4)c3)c3c(N)ncnc32)C1 (stereo partly drawn) [Example 81, (R)-1-(cis-3-{4-amino-5-[3-(tetrahydro-furan-2-ylmethoxy)-phenyl]-pyrrolo[2,3-d]pyrimidin-7-yl}-cyclobutylmethyl)-pyrrolidine-2-carboxylic acid amide] | 157 nM
CC1(C)CCC(COc2cccc(-c3cn(C4CC(CN5CC(F)C5)C4)c4ncnc(N)c34)c2)O1 (stereo not drawn) [Example 40, 5-(cis-3-((5,5-dimethyltetrahydrofuran-2-yl)methoxy)phenyl)-7-(3-((3-fluoroazetidin-1-yl)methyl)cyclobutyl)-7H-pyrrolo[2,3-d]pyrimidin-4-amine] | 39 to 52 nM
NC(=O)[C@@H]1COCCN1C[C@H]1C[C@@H](n2cc(-c3cccc(OCC4CCCCO4)c3)c3c(N)ncnc32)C1 (stereo partly drawn) [Example 96, (3S)-cis-4-((3-(4-amino-5-(3-((tetrahydro-2H-pyran-2-yl)methoxy)phenyl)-7H-pyrrolo[2,3-d]pyrimidin-7-yl}-cyclobutyl)methyl)morpholine-3-carboxamide] | 59 nM
CC1(C)CCC(COc2cccc(-c3cn([C@H]4C[C@@H](CN5CCC(F)CC5)C4)c4ncnc(N)c34)c2)O1 (single isomer, unassigned) [Example 74, 5-[3-(5,5-dimethyl-tetrahydro-furan-2-ylmethoxy)-phenyl]-7-[cis-3-(4-fluoro-piperidin-1-ylmethyl)-cyclobutyl]-7H-pyrrolo[2,3-d]pyrimidin-4-ylamine] | 52 nM
CN1CCN([C@H]2CC[C@@H](n3cc(-c4cccc(OCC56CCC(CC5)O6)c4)c4c(N)ncnc43)CC2)CC1 [Example 109, 5-(3-(7-oxabicyclo[2.2.1]heptan-1-ylmethoxy)phenyl)-7-((1S,4S)-4-(4-methylpiperazin-1-yl)cyclohexyl)-7H-pyrrolo[2,3-d]pyrimidin-4-amine] | 101 nM
Nc1ncnc2c1c(-c1cccc(OCC34CCC(CC3)O4)c1)cn2C1CCC(N2CCC(O)C2)CC1 [Example 127, (S)-1-((1S,4S)-4-(5-(3-(7-oxabicyclo[2.2.1]heptan-1-ylmethoxy)phenyl)-4-amino-7H-pyrrolo[2,3-d]pyrimidin-7-yl)cyclohexyl)pyrrolidin-3-ol] | 374 nM
NC(=O)[C@H]1[C@@H](O)CCN1C[C@H]1C[C@@H](n2cc(-c3cccc(OCC4CCCCO4)c3)c3c(N)ncnc32)C1 (stereo partly drawn) [Example 56, (2R,3S)-1-(cis-3-{4-amino-5-[3-(tetrahydro-pyran-2-ylmethoxy)-phenyl]-pyrrolo[2,3d]pyrimidin-7-yl}-cyclobutylmethyl)-3-hydroxy-pyrrolidine-2-carboxylic acid amide] | 97 nM
NC(=O)[C@@H]1[C@H](O)CCN1C[C@H]1C[C@H](n2cc(-c3cccc(OCC4CCCO4)c3)c3c(N)ncnc32)C1 (relative stereo) [Example 91, (2S,3R)-1(trans-((1R,3S)-3-(4-amino-5-(3-(tetrahydrofuran-2-yl)methoxy)phenyl)-7H-pyrrolo[2,3-d]pyrimidin-7-yl)cyclobutyl)methyl-3-hydroxylpyrrolidine-2-carboxamide] | 108 nM
CC1(C)CCC(COc2cccc(-c3cn([C@H]4C[C@@H](CN5CC[C@@H](F)C5)C4)c4ncnc(N)c34)c2)O1 (relative stereo) [Example 52, 5-[cis-3-(5,5-dimethyl-tetrahydro-furan-2-ylmethoxy)-phenyl]-7-[3-((R)-3-fluoro-pyrrolidin-1-ylmethyl)cyclobutyl]-7H-pyrrolo[2,3-d]pyrimidin-4-ylamine] | 37 nM

Second part, the compound after the results:

IC50 | Compound
175 nM | NC[C@]1(O)C[C@@H](n2cc(-c3cccc(OCC45CCC(CC4)O5)c3)c3c(N)ncnc32)C1 [Example 208, (Z)-1-Aminomethyl-3-{4-amino-5-[3-(7-oxa-bicyclo[2.2.1]hept-1-ylmethoxy)-phenyl]-pyrrolo[2,3-d]pyrimidin-7-yl}-cyclobutanol]
83 nM | Cc1cccc(NC[C@H]2C[C@@H](n3cc(-c4cccc(OCC56CCC(CC5)O6)c4)c4c(N)ncnc43)C2)n1 (relative stereo) [Example 194, 7-{cis-3-[(6-Methyl-pyridin-2-ylamino)-methyl]-cyclobutyl}-5-[3-(7-oxa-bicyclo[2.2.1]hept-1-ylmethoxy)-phenyl]-7H-pyrrolo[2,3-d]pyrimidin-4-ylamine]
456 nM | CC1(C)CS(=O)(=O)CCN1CC1CCC(n2cc(-c3cccc(OCC45CCC(CC4)O5)c3)c3c(N)ncnc32)CC1 (centres unmarked) [Example 135, 7-[4-(3,3-Dimethyl-1,1-dioxo-1λ6-thiomorpholin-4-ylmethyl)-cyclohexyl]-5-[3-(7-oxa-bicyclo[2.2.1]hept-1-ylmethoxy)-phenyl]-7H-pyrrolo[2,3-d]pyrimidin-4-ylamine]
385 nM | CN1CCN([C@H]2C[C@@H](n3cc(-c4cccc(OCC56CCC(CC5)O6)c4)c4c(N)ncnc43)C2)CC1=O (relative stereo) [Example 195, cis-4-(3-{4-Amino-5-[3-(7-oxa-bicyclo[2.2.1]hept-1-ylmethoxy)-phenyl]-pyrrolo[2,3-d]pyrimidin-7-yl}-cyclobutyl)-1-methyl-piperazin-2-one]
192 nM | CN1CCN([C@H]2C[C@H](n3cc(-c4cccc(OCC56CCC(CC5)O6)c4)c4c(N)ncnc43)C2)CC1=O (relative stereo) [Example 196, 4-(trans-3-{4-Amino-5-[3-(7-oxa-bicyclo[2.2.1]hept-1-ylmethoxy)-phenyl]-pyrrolo[2,3-d]pyrimidin-7-yl}cyclobutyl)-1-methyl-piperazin-2-one]
128 nM | Nc1nccn2c1c(-c1cccc(OCC34CCC(CC3)O4)c1)nc2[C@H]1C[C@@H](N2CCC(O)CC2)C1 [Example 187]
312 nM | NC(=O)[C@H]1CCCN1CC1(O)CC(n2cc(-c3cccc(OCC45CCC(CC4)O5)c3)c3c(N)ncnc32)C1 (stereo partly drawn) [Example 212, (R)-(E)-1-(3-{4-Amino-5-[3-(7-oxa-bicyclo[2.2.1]hept-1-ylmethoxy)-phenyl]-pyrrolo[2,3-d]pyrimidin-7-yl}-1-hydroxy-cyclobutylmethyl)-pyrrolidine-2-carboxylic acid amide]
138 nM | 7-[cis-3-(N-methylcarboxy-amino-methyl)-cyclobutyl]-5-3-(7-oxa-bicyclo[2.2.1]hept-1-ylmethoxy)-phenyl]-7H-pyrrolo[2,3-d]pyrimidin-4-ylamine [Example 177]
